From PubChem BioAssay AID504860 (Southern Research Specialized Biocontainment Screening …, 2011)
Calls of active or inactive are those of the source. The rule behind the calls is not given here.

Tests used:
[1] = confirmation, H37Rv, purified and synthesized compounds, set 4 (AID 504860); conditions: M. tuberculosis H37Rv growth inhibition, glycerol-free medium; at 100 µM (top of the series)
[2] = test system: M. tuberculosis H37Rv growth inhibition, glycerol-free medium; assay: as above; conditions: for IC50: measured here: growth inhibition IC50

| Structure (SMILES) | inhibition [1] | IC90 [2] [µM] | IC50 [2] [µM] |
| --- | --- | --- | --- |
| Cc1c[nH]c(=S)[nH]c1=O | 2.03% (inactive) | – | – |
| COC(=O)C(Nc1nc(SCC(=O)NC2CCCCC2)nc2ccccc12)c1ccccc1 (stereo unspecified) | 5.93% (inactive) | – | – |
| CCC(Sc1nc2ccccc2c(=O)[nH]1)C(=O)Nc1cccc(OC)c1 (stereo unspecified) | 14.3% (inactive) | – | – |
| Cc1[nH]c(=S)[nH]c(=O)c1C | 6.28% (inactive) | – | – |
| Cc1ccc(NC(=O)CSc2nc3ccccc3c(=O)[nH]2)cc1Cl | 7.6% (inactive) | – | – |
| CCSc1nc2ccccc2c(=O)[nH]1 | 10.8% (inactive) | – | – |
| CN1CCC(NC(=O)CSc2nc3ccccc3c(=O)[nH]2)CC1 | 8.01% (inactive) | – | – |
| Cc1nc(SCC(N)=O)[nH]c(=O)c1C | 4.67% (inactive) | – | – |
| Cc1cnc(SCC(=O)NC2CCCCC2)[nH]c1=O | 3.92% (inactive) | – | – |
| Nc1c(C(=O)NC2CCCCC2)nsc1C(=O)OCC(=O)NC1CCCCC1 | – | 8.13 | 4.25 |
| Cc1cc(Br)ccc1NC(=O)c1cnc(N2CCN(c3ccccn3)CC2)c2ccccc12 | – | – | 11.4 |
| Cc1nc(SCC(=O)NCCC(C)C)[nH]c(=O)c1C | – | 13.3 | 8.78 |
| Cn1c(SCC(=O)NC2CCCCC2)nc2ccccc2c1=O | 6.07% (inactive) | – | – |
| COc1cccc(NC(=O)CSc2nc3c(c(=O)[nH]2)CCC3)c1 | -4.12% (inactive) | – | – |
| O=C(CSc1ncccn1)NC1CCCCC1 | 0.1% (inactive) | – | – |
| O=C(CSc1ccccn1)NC1CCCCC1 | 6.13% (inactive) | – | – |
| O=c1[nH]c(SCc2ccccc2Cl)nc2c1CCCC2 | 9.5% (inactive) | – | – |

| Structure (SMILES) | inhibition [1] | IC90 [2] [µM] | IC50 [2] [µM] |
| --- | --- | --- | --- |
| O=c1[nH]c(=S)[nH]c2ccccc12 | 2.16% (inactive) | – | – |
| CC1CCN(C(=O)CSc2nc3ccccc3c(=O)[nH]2)CC1 | 8.81% (inactive) | – | – |
| Cc1nc(SCc2ccccc2Cl)[nH]c(=O)c1C | 6.97% (inactive) | – | – |
| Cc1ccc(C(=O)N/N=C(/CC(=O)c2cccs2)C(F)(F)F)cc1 | – | 2.83 | 1.33 |
| O=C(CSc1nccc(=O)[nH]1)NC1CCCCC1 | 7.67% (inactive) | – | – |
| Cc1cc(C)n2nc(N)c(N=Nc3ccccc3)c2n1 | – | 6.75 | 4.45 |
| CC(Sc1nc2ccccc2c(=O)[nH]1)C(=O)NC1CCCCC1 (stereo unspecified) | 6.58% (inactive) | – | – |
| NC(=O)CSc1nc2ccccc2c(=O)[nH]1 | 10.4% (inactive) | – | – |
| CCC(Sc1nc2ccccc2c(=O)[nH]1)C(=O)NC1CCCCC1 (stereo unspecified) | 3.23% (inactive) | – | – |
| Cc1cc(=O)[nH]c(=S)[nH]1 | -3.23% (inactive) | – | – |
| CC[N+](C)(CC)CCCCOc1ccc2c(c1)C(=O)c1cc(OCCCC[N+](C)(CC)CC)ccc1-2 | – | 3.06 | 2.14 |
| Cc1cccc(/C=C/C(=O)c2ccc([N+](=O)[O-])o2)c1 | – | 2.22 | 1.46 |
| Cc1cc(=O)[nH]c(SCC(=O)NC2CCCCC2)n1 | -0.61% (inactive) | – | – |
| Nc1cc(=O)[nH]c(SCC(=O)NC2CCCCC2)n1 | -0.72% (inactive) | – | – |
| O=C(CSc1nc2c(c(=O)[nH]1)CCCC2)NC1CCCCC1 | – | < 0.01 | < 0.01 |
| O=C(CSc1nc2ccccc2c(=O)[nH]1)N1CCOCC1 | 11.1% (inactive) | – | – |
| CN(C(=O)CSc1nc2ccccc2c(=O)[nH]1)C1CCCCC1 | 9.68% (inactive) | – | – |
